Reference: patent publication US11312675B2, “Crystalline polymorphs of 1,6-dibromo-1,6-dideoxy-dulcitol” (Targent, LLC, priority 2015, dated 2022)

Experiments:
[1] = Stability tests (storage, analysed by XRPD); type: physicochemical
Procedure: The sample was stored in the following conditions (a) 25° C. and 60% RH for 7 days and (b) 60° C. and 75% RH for 3 days. The samples were analyzed after the test by XRPD.

[2] = Thermogravimetric analysis (TGA); type: physicochemical; conditions: heating from 25° C. to 450° C. at 10K/min
Procedure: The analysis was carried out using the Mettler Toledo Stare System with the following parameters. The sample was weighed in an aluminum pan hermetically sealed with an aluminum pierced cover. The analysis was performed heating the sample from 25° C. to 450° C. at 10K/min.

[3] = Kellner et al., Nature (1967); cited from earlier work
[4] = reported in the literature; cited from earlier work

## O[C@H]([C@H](O)[C@@H](O)CBr)[C@H](O)CBr [crystalline DBD polymorph, 1,6-dibromo-1,6-dideoxy-dulcitol]
[1]; 25° C. and 60% RH for 7 days
  stability of the crystalline form (XRPD after storage): stable
[1]; 60° C. and 75% RH for 3 days
  stability of the crystalline form (XRPD after storage): stable
[2]
  degradation of the sample (TGA profile): approximately 170 °C

## O[C@H]([C@H](O)[C@@H](O)CBr)[C@H](O)CBr [DBD, 1,6-dibromo-1,6-dideoxy-dulcitol]
[3]
  antitumor effect: selective a vigorous antitumor effect
[4]
  solubility: poorly soluble
